# ChEMBL document CHEMBL1124182, “Design, synthesis, and properties of (4S)-7-(4-amino-2-substituted-pyrrolidin-1-yl)quinolone-3-carboxylic acids” (J Med Chem, 1988)
# What was measured:
# [1] = (§1) Blood level was evaluated by a disk agar diffusion assay at 1.0 hr when administered at a peroral dose of 25 mg/kg; format: ADME, organism-based; parameters: dose 25 mg/kg, route oral; conditions: mouse, po, read-out: Blood level
# [2] = test system: Staphylococcus aureus; test: In vitro Minimum inhibitory concentration against Staphylococcus aureus 45; format: functional
# [3] = test system: Streptococcus pyogenes; test: In vitro Minimum inhibitory concentration against Streptococcus pyogenes 930; format: functional
# [4] = test system: Streptococcus equinus; test: In vitro Minimum inhibitory concentration against Streptococcus bovis A5169; format: functional
# [5] = test system: Escherichia coli; test: In vitro Minimum inhibitory concentration against Escherichia coli Juhl; format: functional
# [6] = (§2) Blood level was evaluated by a disk agar diffusion assay at 3.0 hh when administered at a peroral dose of 25 mg/kg; format: ADME, organism-based; parameters: dose 25 mg/kg, route oral; conditions: mouse, po, read-out: Blood level
# [7] = test system: Mus musculus; test: (§3) In vivo efficacy against Staphylococcus aureus 10649, in mouse protection tests when administered perorally (po); format: functional
# [8] = (§4) Blood level was evaluated by a disk agar diffusion assay at 2.0 hr when administered at a peroral dose of 25 mg/kg; format: ADME, organism-based; parameters: dose 25 mg/kg, route oral; conditions: mouse, po, read-out: Blood level
# [9] = test system: Staphylococcus aureus; test: In vitro Minimum inhibitory concentration against Staphylococcus aureus A5177; format: functional
# [10] = test system: Staphylococcus aureus; test: In vitro Minimum inhibitory concentration against Staphylococcus aureus CMX 686B; format: functional
# [11] = (§5) Blood level was evaluated by a disk agar diffusion assay at 0.5 hr when administered at a peroral dose of 25 mg/kg; format: ADME, organism-based; parameters: dose 25 mg/kg, route oral; conditions: mouse, po, read-out: Blood level
# [12] = test system: Klebsiella pneumoniae; test: In vitro Minimum inhibitory concentration against Klebsiella pneumoniae 8045; format: functional
# [13] = test system: Enterococcus faecium; test: In vitro Minimum inhibitory concentration against Streptococcus faecium ATCC 8043; format: functional
# [14] = test system: Acinetobacter; test: In vitro Minimum inhibitory concentration against Acinetobacter CMX 669; format: functional; conditions: Acinetobacter; read-out: MIC
# [15] = test system: Pseudomonas aeruginosa; test: In vitro Minimum inhibitory concentration against Pseudomonas aeruginosa K799/WT; format: functional
# [16] = test system: Streptococcus agalactiae; test: In vitro Minimum inhibitory concentration against Streptococcus agalactiae CMX 508; format: functional
# [17] = test system: Pseudomonas aeruginosa; test: In vitro Minimum inhibitory concentration against Pseudomonas aeruginosa 5007; format: functional
# [18] = test system: Staphylococcus aureus; test: In vitro Minimum inhibitory concentration against Staphylococcus aureus ATCC 6538P; format: functional
# [19] = test system: Mus musculus; test: (§6) In vivo efficacy against Staphylococcus aureus 10649, in mouse protection tests when administered subcutaneously (sc); format: functional
# [20] = test system: Staphylococcus epidermidis; test: In vitro Minimum inhibitory concentration against Staphylococcus epidermidis 3519; format: functional
# [21] = test system: Escherichia coli; test: Supercoiling inhibition assay using purified DNA gyrase isolated from Escherichia coli H560; format: functional; conditions: read-out: I50
# [22] = test system: Mus musculus; test: In vivo efficacy against Escherichia coli Juhl, in mouse protection tests when administered subcutaneously (sc); format: functional
# [23] = test system: Mus musculus; test: as §5; format: functional; conditions: route oral
# [24] = test system: Mus musculus; test: (§7) Blood level was evaluated by a disk agar diffusion assay at 24.0 hr when administered at a peroral dose of 25 mg/kg; format: functional; conditions: route oral
# [25] = test system: Mus musculus; test: as §2; format: functional; conditions: route oral
# [26] = test system: Staphylococcus aureus; test: as §3; format: functional
# [27] = test system: Mus musculus; test: as §1; format: functional; conditions: route oral
# [28] = test system: Mus musculus; test: (§8) Blood level was evaluated by a disk agar diffusion assay at 6.0 hr when administered at a peroral dose of 25 mg/kg; format: functional; conditions: route oral
# [29] = test system: Mus musculus; test: as §4; format: functional; conditions: route oral
# [30] = test system: Staphylococcus aureus; test: as §6; format: functional
# [31] = test system: Mus musculus; test: In vivo efficacy against Escherichia coli Juhl, in mouse protection tests when administered perorally (po); format: functional
# [32] = Compound was evaluated for the solubility in Ringer's buffer solution; format: ADME
# [33] = as §7; format: ADME, organism-based; parameters: dose 25 mg/kg, route oral; conditions: mouse, po, read-out: Blood level
# [34] = as §8; format: ADME, organism-based; parameters: dose 25 mg/kg, route oral; conditions: mouse, po, read-out: Blood level
# [35] = Partition coefficient (logP); format: physicochemical; conditions: octanol/water
# [36] = Blood level was evaluated by a disk agar diffusion assay at 3.0 hh when administered at a peroral dose of 100 mg/kg; format: ADME, organism-based; parameters: dose 100 mg/kg, route oral; conditions: mouse, po, read-out: Blood level
# [37] = Ringer's buffer solution, read-out: Solubility
MIC [2] [µg/mL],MIC [3] [µg/mL],MIC [4] [µg/mL],MIC [5] [µg/mL],MIC [9] [µg/mL],MIC [10] [µg/mL],MIC [12] [µg/mL],MIC [13] [µg/mL],MIC [14] [µg/mL],MIC [15] [µg/mL],MIC [16] [µg/mL],MIC [17] [µg/mL],MIC [18] [µg/mL],MIC [20] [µg/mL],IC50 [21] [µg/mL],"solubility [32, 37] [µg/mL]",logP [35],Compound,further results
0.05,0.2,0.2,0.02,0.05,0.05,0.01,0.2,0.1,0.78,0.2,3.1,0.05,0.05,,,,C[C@H]1C[C@H](N)CN1c1cc2c(cc1F)c(=O)c(C(=O)O)cn2-c1ccc(F)cc1,concentration at 1 h [1]: 800 ng/mL; concentration at 3 h [6]: 200 ng/mL; ED50 [7]: 4.4 mg/kg; concentration at 2 h [8]: 400 ng/mL; concentration at 0.5 h [11]: 1000 ng/mL; ED50 [19]: 0.8 mg/kg
0.78,0.78,1.56,0.05,0.39,0.2,0.05,0.39,0.39,0.39,0.78,1.56,0.1,0.39,,,,O=C(O)c1cn(-c2ccc(F)cc2F)c2cc(N3C[C@@H]4C[C@H]3CN4)c(F)cc2c1=O,
0.1,0.2,0.78,0.1,0.1,0.05,0.1,0.2,0.39,0.78,0.39,0.78,0.05,0.2,0.75,,,N[C@H]1CC(CF)N(c2nc3c(cc2F)c(=O)c(C(=O)O)cn3-c2ccc(F)cc2F)C1 (stereo partly specified),
0.39,0.78,1.56,0.2,0.2,0.1,0.1,0.78,0.78,1.56,0.78,1.56,0.1,0.39,,,,COCC1C[C@H](N)CN1c1nc2c(cc1F)c(=O)c(C(=O)O)cn2-c1ccc(F)cc1F (stereo partly specified),
12.5,25,50,3.1,6.2,6.2,3.1,25,25,12.5,12.5,12.5,1.56,12.5,10,60,,N[C@H]1C[C@@H](CO)N(c2cc3c(cc2F)c(=O)c(C(=O)O)cn3-c2ccc(F)cc2F)C1,
0.1,0.39,0.78,0.05,0.1,0.05,0.05,0.39,0.1,0.39,0.78,0.39,0.05,0.1,,,,C[C@H]1C[C@H](N)CN1c1nc2c(cc1F)c(=O)c(C(=O)O)cn2-c1ccc(F)cc1,concentration at 1 h [1]: 1900 ng/mL; concentration at 24 h [33]: 100 ng/mL; concentration at 3 h [6]: 800 ng/mL; ED50 [26]: 5.7 mg/kg; concentration at 2 h [8]: 1500 ng/mL; concentration at 0.5 h [11]: 2400 ng/mL; concentration at 6 h [34]: 300 ng/mL; ED50 [30]: 2 mg/kg
1.56,0.39,1.56,0.78,0.78,0.39,0.78,0.78,6.2,0.39,0.78,0.78,0.1,0.78,0.4,60,-0.98,N[C@H]1CC(CO)N(c2cc3c(cc2F)c(=O)c(C(=O)O)cn3-c2ccc(F)cc2F)C1 (stereo partly specified),ED50 [22]: 5.9 mg/kg; ED50 [26]: 5.4 mg/kg; ED50 [30]: 0.7 mg/kg; ED50 [31]: > 16 mg/kg
0.78,0.78,1.56,0.05,0.39,0.2,0.05,0.39,0.39,0.39,0.78,0.39,0.1,0.39,,,,O=C(O)c1cn(-c2ccc(F)cc2F)c2nc(N3C[C@@H]4C[C@H]3CN4)c(F)cc2c1=O,
3.1,50,100,50,3.1,3.1,25,> 100,> 100,> 100,100,> 100,3.1,3.1,,,,O=C(O)c1cn(-c2ccc(F)cc2)c2cc(N3CCC[C@H]3CO)c(F)cc2c1=O,
0.1,0.2,0.2,0.05,0.2,0.05,0.02,0.1,0.1,0.39,0.1,3.1,0.02,0.2,0.9,53,0.085,C[C@H]1C[C@H](N)CN1c1cc2c(cc1F)c(=O)c(C(=O)O)cn2-c1ccc(F)cc1F,ED50 [22]: 0.9 mg/kg; concentration at 3 h [6]: 1100 ng/mL; ED50 [26]: 3.3 mg/kg; ED50 [30]: < 0.5 mg/kg; ED50 [31]: 3.6 mg/kg
0.39,3.1,25,0.78,0.39,0.1,0.78,3.1,0.78,3.1,3.1,3.1,0.1,0.39,,,,O=C(O)c1cn(-c2ccc(F)cc2)c2cc(N3CCC[C@@H]3CO)c(F)cc2c1=O,
0.78,1.56,6.2,0.78,0.78,0.39,0.78,3.1,3.1,6.2,6.2,5,0.39,0.78,18,182,0.03,C[C@@H]1C[C@H](N)CN1c1cc2c(cc1F)c(=O)c(C(=O)O)cn2-c1ccc(F)cc1F,
,,,,,,,,,,,,,,,,,NC1CCN(c2cc3c(cc2F)c(=O)c(C(=O)O)cn3-c2ccc(F)cc2)C1 (stereo unspecified),ED50 [22]: 1 mg/kg; ED50 [7]: 6.2 mg/kg; ED50 [19]: 0.8 mg/kg; ED50 [31]: 5.8 mg/kg
0.39,1.56,6.2,0.39,0.39,0.2,0.39,3.1,0.78,3.1,6.2,12.5,0.2,0.39,7.5,340,-0.11,C[C@@H]1C[C@H](N)CN1c1nc2c(cc1F)c(=O)c(C(=O)O)cn2-c1ccc(F)cc1F,Blood level [23]: 5.3 µg/mL; Blood level [24]: 0 µg/mL; Blood level [25]: 2.2 µg/mL; Blood level [27]: 12.4 µg/mL; Blood level [28]: 1.1 µg/mL; Blood level [29]: 3.7 µg/mL

Compound,MIC [2] [µg/mL],MIC [3] [µg/mL],MIC [4] [µg/mL],MIC [5] [µg/mL],MIC [9] [µg/mL],MIC [10] [µg/mL],MIC [12] [µg/mL],MIC [13] [µg/mL],MIC [14] [µg/mL],MIC [15] [µg/mL],MIC [16] [µg/mL],MIC [17] [µg/mL],MIC [18] [µg/mL],MIC [20] [µg/mL],IC50 [21] [µg/mL],"solubility [32, 37] [µg/mL]",logP [35],further results
O=C(O)c1cn(C2CC2)c2cc(N3CCNCC3)c(F)cc2c1=O [CIPROFLOXACIN],0.78,,1.56,,0.39,0.39,0.02,0.39,0.39,0.2,0.78,0.39,0.2,0.78,0.9,,,ED50 [22]: 0.2 mg/kg; Blood level [23]: 1.3 µg/mL; Blood level [24]: 0 µg/mL; Blood level [25]: 0.1 µg/mL; ED50 [26]: 15.5 mg/kg; Blood level [27]: 0.8 µg/mL; Blood level [28]: 0 µg/mL; Blood level [29]: 0.3 µg/mL; ED50 [30]: 1.6 mg/kg; ED50 [31]: 1.9 mg/kg
NC1CCN(c2nc3c(cc2F)c(=O)c(C(=O)O)cn3-c2ccc(F)cc2F)C1 (stereo unspecified) [TOSUFLOXACIN],0.05,0.1,0.78,0.02,0.05,0.05,0.01,0.2,0.05,0.39,0.2,0.78,0.02,0.1,0.4,,-0.46,solubility ([32]; buffer): 8 µg/mL; concentration at 3 h [36]: 1700 ng/mL
